# Source: article PMC7405012, “Detection of Chaetomium globosum, Ch. cochliodes and Ch. rectangulare during the Diversity Tracking of Mycotoxin-Producing Chaetomium-like Isolates Obtained in Buildings in Finland” (Toxins, 2020)
# Read-outs that look alike come from different tables or passages of the source.
# How the values were obtained:
# boar spermatozoa [1] = test: cells; assay type: cell-based; conditions: for EC50: Spermatozoa, read-out: EC50 BSMIM Boar Sperm 20 min
# boar spermatozoa [2] = test: cells; assay type: cell-based; conditions: for EC50: Spermatozoa, read-out: EC50 SMIDM Boar Sperm 2 h
# [3] = system: porcine kidney cells (PK-15); test: cells; assay type: cell-based; conditions: for EC50: Sus scrofa, 48 h, read-out: EC50 ICP PK-15 2 days
# [4] = system: murine neuroblastoma cells (MNA); test: Inhibition of cell proliferation (ICP) assay, MNA; assay type: cell-based; conditions: MNA, 2 days, 37 °C
# Procedure: The plate-grown biomass of the fungal pure cultures (100–300 mg) was extracted with ethanol as described earlier. The toxicity assays, namely BSMI assay after exposure for 30 min (rapid inhibition) and for one day (slow inhibition), SMID assay and ICP assay, were all described previously. The toxicity assays involving the ethanol extracts obtained from pure fungal cultures were performed using porcine cells (sperms and somatic cell lines) as indicators according to methods described before. The calculation of EC50—the half maximal effective concentration for the ethanol-dry substances and pure mycotoxins in the BSMI, SMID and ICP assays—were described previously.
# The continuous cell line PK-15 (porcine kidney cells) and a malignant cell line (MNA cell line) provided by EVIRA (Helsinki, Finland) were used in the ICP assay. 5,5′,6,6′-tetrachloro-1,1′,3,3′-tetraethyl-benzimidazolylcarbocyanine iodide (JC-1, 3520-43-2), PI (25535-16-4) and calcein-AM (148504-34-1) were obtained from Invitrogen (Carlsbad, CA, USA). Alamethicin A4665 (T. arundinaceum) (CAS 27061-78-5), a mixture of alamethicin F50 peptaibols (MW 1962, 1976, 1976 and 1990), chaetoglobosin A (CAS 50335-03-0), sterigmatocystin (CAS 10048-13-5) and ochratoxin A (CAS 303-47-9) were obtained from Sigma-Aldrich (St. Louis, MO, USA). Malt extract and tryptic soy agar were obtained from Scharlab (Barcelona, Spain). The other chemicals were of analytical grade and were purchased from local suppliers. The biocides and the wetting agent Genapol-080 were purchased from Sigma-Aldrich Finland. The fungicide Boracol 10Rh was obtained from a local supplier. The selected biocides were Borax (600 µg mL^−1; sodium tetraborate, CAS: 1330-43-4), Boracol 10Rh containing disodium octaborate tetrahydrate (CAS: 12280-03-04) and didecyldimethylammonium chloride [CAS: 7173-51-5]), PHMB (CAS: 27083-27-8), phenoxyethanol (CAS: 122-99-6), chloramine, triclosan (5-Chloro-2-(2,4-dichlorophenoxy)phenol, CAS: 3380-34-5) and the wetting agent Genapol X-080 (CAS: 9043-30-5). Genapol X-080 and the biocides were purchased from Sigma-Aldrich, except for Boracol 10Rh, which was purchased from a local supplier.
# resting boar spermatozoa [5] = test: Plasma membrane integrity of resting spermatozoa (SMIDR), calcein-AM + PI; assay type: cell-based; conditions: resting boar sperm, 24 °C; for CC50: Spermatozoa, 48 h, 2 days, read-out: EC50 Lethal Toxicity SMIDR 2 days
# Procedure: (§1) The long-term effects of exposure to chaetoglobosin A and to the chaetoglobosin-containing extracts of the Ch. globosum MTAV35 and MTAV37 strains were measured in resting sperm cells exposed at 24 °C for two days. Three criteria were assessed: (1) the motility inhibition of resting boar spermatozoa (BSMIR); (2) the change in mitochondrial membrane potential (ΔΨ) observed using the potentiometric dye JC-1; and (3) the plasma membrane integrity (SMIDR) observed using the viability stain calcein-AM + propidium iodide (PI). […] By contrast, the EC50 concentrations in the SMIDR assays, which measured the lethal damages in plasma membrane after incubation for two days, were >50 times higher (Figure 5 and Table 3).
# (§2) The boar sperm cells exposed for 2 days to commercial chaetoglobosin A and the crude extract of MTAV35 and MTAV37 were double-stained with the viability stains PI + calcein–AM, the SMIDR assay, as described earlier. The staining protocol was as follows: 200 μL of extended boar semen containing 27 × 10^6 sperm cells mL^−1 was mixed with 200 μL PBS containing 3 μg mL^−1 calcein-AM and 10 μg mL^−1 PI. The ΔΨm assay monitored the mitochondrial membrane potential changes (ΔΨm) by staining with the lipophilic potentiometric dye JC-1 as described by Mikkola et al. (2015). For the staining with JC-1 (35 µg mL^−1), 200 µL of the sperm cells were shaken and incubated at 37 °C for 5 min. After staining, the cells exposed in the SMIDR and the ΔΨm assays were inspected with fluorescence microscope using 400× magnification (Nikon Eclipse E600, Nikon Corporation, Tokyo Japan) with filters BP 450–490 nm/LP 520. The calcein–AM-stained cells with intact plasma membranes produced green fluorescence, whereas the PI-dyed cells with damaged plasma membranes produced red fluorescence. In JC-1 stained sperm cells, mitochondria with high membrane potential emitted yellow fluorescence, whereas depolarized mitochondria fluoresced green.
# (§3) The EC50 concentration in these microscopic assays was defined as the lowest concentration where the ratio of cells similar to those in the solvent control was less than 50%. This EC50 fitted between EC90 and EC10 observed in the microscope calculating ca. 100–120 sperm cells from three microscopic fields. The maximal difference between four parallel tests in each of the two methods was one dilution step. The assays were calibrated with triclosan.
# resting boar spermatozoa [6] = test: Motility inhibition of resting boar spermatozoa (BSMIR); assay type: cell-based; conditions: resting boar sperm; for EC50: Spermatozoa
# Procedure: as §1, with “Three” for “The long-term effects of exposure to chaetoglobosin A and to the chaetoglobosin-containing extracts of the Ch. globosum MTAV35 and MTAV37 strains were measured in resting sperm cells exposed at 24 °C for two days. Three”
# The procedure for the BSMIR assay measuring sublethal toxicity as motility inhibition, i.e., inability to respond to induction of motility in resting sperm cells is described below: The ethanol solutions (0.5–10 μL) were dispensed in 2000 μL of extended boar semen (Figen Ltd., Tuomikylä, Finland, density of 27 × 10^6 sperms mL^−1) incubated at 24 °C, and motility of the sperms was inspected in the phase-contrast microscope (400× magnification) with a heated stage, (Olympus CKX41, Tokyo, Japan; magnification 400×) and an image recording software (Cellsense® standard version 11.0.06, Olympus Soft Imaging Solutions GmbH, Münster, Germany, 2012) as described previously. […] The EC50 was calculated from the equation of the straight line between EC50-40 and EC80-90: Y = −ΔY/ΔX × X + C where Y is the motility closest to 50% of the motility of the solvent control, X is the EC50 concentration and C is a constant between 100% and 60%. All tests were run in triplicates and differences between replicate tests were within one dilution step (2-fold). The sperm assays were calibrated with triclosan and valinomycin.
# resting boar spermatozoa [7] = test: Mitochondrial membrane potential (ΔΨm) assay with JC-1 in resting spermatozoa; assay type: cell-based; conditions: resting boar sperm; for EC50: Spermatozoa
# Procedure: as §1, with “Three” for “The long-term effects of exposure to chaetoglobosin A and to the chaetoglobosin-containing extracts of the Ch. globosum MTAV35 and MTAV37 strains were measured in resting sperm cells exposed at 24 °C for two days. Three”
# as §2, §3
# resting PK-15 cells = test: Mitochondrial damage test: accelerated glucose consumption and extracellular acidosis; assay type: cell-based, porcine; conditions: for EC50: Sus scrofa; for sublethal concentration that promoted the acceleration of glycolysis: PK-15 cells, positive controls for mitochondrial toxicity
# Procedure: The mitochondria were depolarized in sperm cells exposed to sublethal concentrations of chaetoglobosin A (Figure 5) and to the chaetoglobosin-containing extracts (Table 3). This observation aroused the suspicion regarding mitochondrial toxicity. The mitochondrial toxicity of the extracts containing chaetoglobosin was assessed by measuring the accelerated glucose consumption in resting PK-15 cells. […] By contrast, the positive controls for mitochondrial toxicity—enniatin B, moniliformin and valinomycin at sublethal concentrations of 1.5, 4 and 5 ng mL^−1, respectively—promoted the acceleration of glycolysis.
# The test for mitochondrial damage as indicated by accelerated glucose consumption and extracellular acidosis was described earlier. The PK-15 cells were grown in 8-well flat-bottom chamber glass slides, seeded to a density of 4 × 10^4 cells mL^−1, in the respective medium for 48 h. The twofold serially diluted test substances or the vehicle only was dispensed into the wells. The glucose content of the wells was measured by using a glucose meter (Precision Xceed; Abbott Diabetes Care Ltd., Berkshire, United Kingdom). In wells that received nothing or the vehicle only, the glucose concentration decreased from an initial concentration (0 h) of 12 to 6 mM (24 h), but the pH remained as pH of 7.2. A glucose concentration after 24 h of ≤3 mM indicated excessive glucose consumption. Prior to the measurement of the pH, the chamber slides were transferred into ambient air for 1 h to allow CO2 to evaporate. A pH drop of 0.5 units in the toxin-exposed well compared to the vehicle only was considered proof of acidosis. Mitochondrial depolarization (ΔΨm assay) was read by a fluorescence microscope after 26 h of exposure to the toxicants from the monolayers double stained with the membrane potential-responsive fluorogenic dye JC-1 and with propidium iodide to assess the relaxing of the plasma membrane permeability barrier, similar to what was reported previously for sperm cells (27).
# [8] = 20 min, motile boar sperm, 20 min, 37 °C
# [9] = 48 h, 24 °C, 2 days, read-out: EC50 Sublethal Toxicity BSMIR 2 days
# [10] = 48 h, JC-1, 2 days, read-out: EC50 Sublethal Toxicity Depletion of ΔΨm 2 days
# [11] = 24 h, PK-15, 1 day, read-out: EC50 Sublethal Toxicity Acceleration of glycolysis 1 day
# [12] = 48 h, PK-15, 2 days, read-out: EC50 Sublethal Toxicity Acidosis 2 days
Compound,EC50 (boar spermatozoa [1]; [8]) [µg/mL],"EC50 (boar spermatozoa [2]; motile boar sperm, 2 h, 37 °C) [µg/mL]","EC50 ([3]; PK-15, 2 days, 37 °C) [µg/mL]",CC50 (resting boar spermatozoa [5]) [µg/mL],EC50 (resting boar spermatozoa [6]; [9]) [ng/mL],EC50 (resting boar spermatozoa [7]; [10]) [ng/mL],EC50 (resting PK-15 cells; [11]) [µg/mL],EC50 (resting PK-15 cells; [12]) [µg/mL],lethal concentration in resting PK-15 cells (number in parenthesis) (resting PK-15 cells) [µg/mL],"EC50 Sublethal Toxicity BSMIR 2 days (resting boar spermatozoa [6]; 24 °C, 2 days) [µg/mL]","EC50 Sublethal Toxicity Depletion of ΔΨm 2 days (resting boar spermatozoa [7]; JC-1, 2 days)","EC50 Sublethal Toxicity Acceleration of glycolysis 1 day (resting PK-15 cells; PK-15, 1 day)","EC50 Sublethal Toxicity Acidosis 2 days (resting PK-15 cells; PK-15, 2 days)",sublethal concentration that promoted the acceleration of glycolysis (resting PK-15 cells) [ng/mL],further results
"CC1=C2C(=CO[C@H](C)[C@H]2C)C(O)=C(C(=O)O)C1=O [Citrinin, reference compound]",> 100,50,10,–,–,–,–,–,–,–,–,–,–,–,"EC50 ([4]; Mus musculus, Neuroblastoma cell, 48 h, read-out: EC50 ICP MNA 2 days): 10 µg/mL"
CC(C)[C@H]1C(=O)O[C@H](C(C)C)C(=O)N(C)[C@@H](C(C)C)C(=O)O[C@H](C(C)C)C(=O)N(C)[C@@H](C(C)C)C(=O)O[C@H](C(C)C)C(=O)N1C [Enniatin B],–,–,–,> 50,5000,5000,5,5,50,–,–,–,–,–,–
O=c1cc(O)c1=O [Moniliformin],–,–,–,–,–,–,–,–,40,2,None,4 µg/mL,4 µg/mL,4,–
"COc1cc2c(c3oc4cccc(O)c4c(=O)c13)[C@@H]1C=CO[C@@H]1O2 [Sterigmatocystin, sterigmatocystin]",–,–,–,–,–,–,–,–,–,–,–,–,–,–,EC50 BSMIM Boar Sperm 20 min (boar spermatozoa [1]): >20 µg dry wt mL^−1; EC50 SMIDM Boar Sperm 2 h (boar spermatozoa [2]): >20 µg dry wt mL^−1; EC50 ICP PK-15 2 days [3]: 0.5 µg dry wt mL^−1
CC(C)[C@@H]1NC(=O)[C@H](C)OC(=O)[C@@H](C(C)C)NC(=O)[C@@H](C(C)C)OC(=O)[C@H](C(C)C)NC(=O)[C@H](C)OC(=O)[C@@H](C(C)C)NC(=O)[C@@H](C(C)C)OC(=O)[C@H](C(C)C)NC(=O)[C@H](C)OC(=O)[C@@H](C(C)C)NC(=O)[C@@H](C(C)C)OC1=O [Valinomycin],0.0001,70,14,5,0.05,0.05,0.005,0.005,5,–,–,–,–,5,"EC50 (resting boar spermatozoa [6]; 96 h, 4 days, read-out: EC50 Sublethal Toxicity BSMIR 4 days): 0.05 ng/mL; EC50 (resting boar spermatozoa [7]; 96 h, JC-1, 4 days, read-out: EC50 Sublethal Toxicity Depletion of ΔΨm 4 days): 0.05 ng/mL"
Alamethicin,–,–,–,–,–,–,–,–,–,0.2,0.2 µg/mL,None,None,–,"EC50 BSMIM Boar Sperm 20 min (boar spermatozoa [1]; motile boar sperm, 20 min, 37 °C): 5 µg dry wt mL^−1; EC50 SMIDM Boar Sperm 2 h (boar spermatozoa [2]; motile boar sperm, 2 h, 37 °C): 1 µg dry wt mL^−1; EC50 ICP PK-15 2 days ([3]; PK-15, 2 days, 37 °C): 8 µg dry wt mL^−1; EC50 ICP MNA 2 days [4]: 8 µg dry wt mL^−1; EC50 Lethal Toxicity SMIDR 2 days (resting boar spermatozoa [5]): 0.2 µg/mL"
